Test results published in patent US11912710B2 (UPPTHERA, INC., priority 2021, dated 2024).

What was measured:
Assay type in all cases: cell-based
PLK1 = target: T1, PLK1 (Homo sapiens, UniProt P53350); assay: Luciferase assay for PLK1 in HeLa LgBit (Plk1-HiBit KI) cell line; details: 300 nM compound, luminescence after 9 hours, read-out: Activity: ratio of the luminescense value of compound treatment group to DMSO treatment group
T1 construct: endogenous in cells; host or cells: HeLa LgBit (Plk1-HiBit KI): HeLa cells stably expressing LgBit, with HiBit knocked into the endogenous Plk1 locus by CRISPR/Cas9
Procedure, shortened: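 Luminescence, followed in real time after adding compound at 300 nM and Endurazine substrate, is reported relative to DMSO-treated wells. Cells are a HeLa LgBit line with a Plk1-HiBit knock-in, synchronized by 2 mM thymidine for 24 h, released, and cultured 18 h before treatment.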

NCI-H526 cell line = assay: Cell viability assay for H526 cell line; details: Homo sapiens, NCI-H526, 120 h; H526 cells, 5 days, EZ-Cytox, 3000 nM to 0.46 nM
Procedure, shortened: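 NCI-H526 cells exposed to compounds for 5 days in a CO2 incubator; viability read as absorbance at 450 nm after 3 min plate shaking; IC50 derived from treatment response.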

MRC-5 cell line = assay: Cell viability assay (cytotoxicity) for MRC-5 cell line; details: Homo sapiens, MRC5, 120 h; MRC-5 normal cell line, 5 days, EZ-Cytox, 10000 nM to 1.52 nM; read-out: Activity: IC50 value to MRC-5 cell line (Exemplary Compounds)
Method: 4. Cell Viability Assay for MRC-5 Cell Line
(1) Culture of MRC-5 Cell Line
Passage of cultured cells was maintained within P15.
(2) Treatment of Compounds of the Present Invention
Then, it was cultured in 37° C.
(3) Cytotoxicity Experiment
CO2 incubator for 4 hours.
Cell Viability Assay for MRC-5 cell line

T1 sequence (P53350 whole entry): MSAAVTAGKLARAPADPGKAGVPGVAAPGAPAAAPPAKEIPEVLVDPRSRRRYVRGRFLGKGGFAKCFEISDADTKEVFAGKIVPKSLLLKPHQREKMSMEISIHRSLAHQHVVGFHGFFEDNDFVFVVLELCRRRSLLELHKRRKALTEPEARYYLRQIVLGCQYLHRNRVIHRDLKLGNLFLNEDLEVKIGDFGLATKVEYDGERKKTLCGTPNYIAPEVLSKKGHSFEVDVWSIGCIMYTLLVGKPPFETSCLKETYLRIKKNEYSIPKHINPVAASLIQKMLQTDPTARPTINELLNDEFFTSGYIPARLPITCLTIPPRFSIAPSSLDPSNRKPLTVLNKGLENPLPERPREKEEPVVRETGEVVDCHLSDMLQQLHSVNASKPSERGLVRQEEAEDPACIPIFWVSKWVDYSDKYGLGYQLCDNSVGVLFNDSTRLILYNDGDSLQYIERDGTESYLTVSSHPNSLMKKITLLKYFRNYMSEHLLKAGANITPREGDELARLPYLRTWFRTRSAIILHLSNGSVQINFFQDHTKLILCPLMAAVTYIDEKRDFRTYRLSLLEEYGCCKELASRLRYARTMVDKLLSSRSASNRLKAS

Question: With `COc1cc(C(=O)NC2CCN(C(=O)CCN3CCN(c4cccc(C5CCC(=O)NC5=O)n4)CC3)CC2)ccc1Nc1ncc2c(n1)N(C1CCCC1)CC(F)(F)C(=O)N2C` (stereo not drawn) [Compound 36, 4-((9-cyclopentyl-7,7-difluoro-5-methyl-6-oxo-6,7,8,9-tetrahydro-5H-pyrimido[4,5-b][1,4]diazepin-2-yl)amino)-N-(1-(3-(4-(6-(2,6-dioxopiperidin-3-yl)pyridin-2-yl)piperazin-1-yl)propanoyl)piperidin-4-yl)-3-methoxybenzamide] as the compound, how does the remaining activity at 0.3 µM (PLK1) read?
Answer: Its remaining activity at 0.3 µM is under 60%.

Question: What about the IC50 (NCI-H526 cell line) of the same compound?
Answer: Its IC50 is under 0.03 µM.

Question: And the IC50 (MRC-5 cell line)?
Answer: Its IC50 is over 10 µM.

Question: For `COc1cc(C(=O)NC2CCN(C(=O)CCN3CCN(c4ccnc(C5CCC(=O)NC5=O)c4)CC3)CC2)ccc1Nc1ncc2c(n1)N(C1CCCC1)CC(F)(F)C(=O)N2C` (stereo not drawn) [Compound 37, 4-((9-cyclopentyl-7,7-difluoro-5-methyl-6-oxo-6,7,8,9-tetrahydro-5H-pyrimido[4,5-b][1,4]diazepin-2-yl)amino)-N-(1-(3-(4-(2-(2,6-dioxopiperidin-3-yl)pyridin-4-yl)piperazin-1-yl)propanoyl)piperidin-4-yl)-3-methoxybenzamide], which remaining activity at 0.3 µM (PLK1) is on record?
Answer: Its remaining activity at 0.3 µM is under 60%.

Question: And the IC50 (NCI-H526 cell line)?
Answer: The IC50 was under 0.05 µM.

Question: And the IC50 (MRC-5 cell line)?
Answer: The IC50 was over 10 µM.

Question: How did the remaining activity at 0.3 µM (PLK1) turn out when `COc1cc(C(=O)NC2CC3(CCN(CC4CCN(c5ccc(C6CCC(=O)NC6=O)nc5)CC4)CC3)C2)ccc1Nc1ncc2c(n1)N(C1CCCC1)CC(F)(F)C(=O)N2C` (stereo not drawn) [Compound 39, 4-((9-cyclopentyl-7,7-difluoro-5-methyl-6-oxo-6,7,8,9-tetrahydro-5H-pyrimido[4,5-b][1,4]diazepin-2-yl)amino)-N-(7-((1-(6-(2,6-dioxopiperidin-3-yl)pyridin-3-yl)piperidin-4-yl)methyl)-7-azaspiro[3.5]nonan-2-yl)-3-methoxybenzamide] was run?
Answer: Its remaining activity at 0.3 µM is under 60%.

Question: And the IC50 (NCI-H526 cell line)?
Answer: Its IC50 is under 0.03 µM.

Question: And the IC50 (MRC-5 cell line)?
Answer: The IC50 was over 10 µM.

Question: Which results are given for `COc1cc(C(=O)NC2CC3(CCN(CCC4CCN(c5ccc(C6CCC(=O)NC6=O)cc5F)CC4)CC3)C2)ccc1Nc1ncc2c(n1)N(C1CCCC1)CC(F)(F)C(=O)N2C` (stereo not drawn) [Compound 45, 4-((9-cyclopentyl-7,7-difluoro-5-methyl-6-oxo-6,7,8,9-tetrahydro-5H-pyrimido[4,5-b][1,4]diazepin-2-yl)amino)-N-(7-(2-(1-(4-(2,6-dioxopiperidin-3-yl)-2-fluorophenyl)piperidin-4-yl)ethyl)-7-azaspiro[3.5]nonan-2-yl)-3-methoxybenzamide]?
Answer: remaining activity at 0.3 µM (PLK1): < 60%; IC50 (NCI-H526 cell line): < 0.03 µM; IC50 (MRC-5 cell line): 8.68 µM
